According to the CheMixHub viscosity set:

Experiment: xn = mol fraction of the nth substance listed

CN1CCCC1=O + O
Conditions	viscosity [mPa·s]
293.15 K, 101 kPa, x1 = 0.6997	2.865
298.15 K, 101 kPa, x1 = 0.02	1.2
298.15 K, 101 kPa, x1 = 0.0505	1.809
298.15 K, 101 kPa, x1 = 0.0985	2.79
298.15 K, 101 kPa, x1 = 0.0997	2.778
298.15 K, 101 kPa, x1 = 0.1202	3.198
298.15 K, 101 kPa, x1 = 0.1503	3.914
298.15 K, 101 kPa, x1 = 0.1702	4.125
298.15 K, 101 kPa, x1 = 0.1881	4.44
298.15 K, 101 kPa, x1 = 0.1999	4.578
298.15 K, 101 kPa, x1 = 0.2205	4.804
298.15 K, 101 kPa, x1 = 0.2496	5.035
298.15 K, 101 kPa, x1 = 0.2697	5.12
298.15 K, 101 kPa, x1 = 0.2937	5.154
298.15 K, 101 kPa, x1 = 0.3053	5.1
298.15 K, 101 kPa, x1 = 0.3496	5.006
298.15 K, 101 kPa, x1 = 0.3959	4.59
298.15 K, 101 kPa, x1 = 0.3999	4.679
298.15 K, 101 kPa, x1 = 0.45	4.31
298.15 K, 101 kPa, x1 = 0.4954	3.77
298.15 K, 101 kPa, x1 = 0.4999	3.909
298.15 K, 101 kPa, x1 = 0.5941	3.07
298.15 K, 101 kPa, x1 = 0.6002	3.214
298.15 K, 101 kPa, x1 = 0.6917	2.55
298.15 K, 101 kPa, x1 = 0.7	2.676
298.15 K, 101 kPa, x1 = 0.786	2.18
298.15 K, 101 kPa, x1 = 0.7997	2.299
298.15 K, 101 kPa, x1 = 0.8859	1.9
298.15 K, 101 kPa, x1 = 0.8962	2.023
298.15 K, 101 kPa, x1 = 0.9498	1.908
298.15 K, 101.15 kPa, x1 = 0.0501	1.74
298.15 K, 101.15 kPa, x1 = 0.0701	2.137
298.15 K, 101.15 kPa, x1 = 0.1001	2.762
298.15 K, 101.15 kPa, x1 = 0.2004	4.555
298.15 K, 101.15 kPa, x1 = 0.3004	5.062
298.15 K, 101.15 kPa, x1 = 0.4012	4.505
298.15 K, 101.15 kPa, x1 = 0.503	3.729
298.15 K, 101.15 kPa, x1 = 0.5937	3.075
298.15 K, 101.15 kPa, x1 = 0.7023	2.503
298.15 K, 101.15 kPa, x1 = 0.9006	1.836
298.16 K, 101 kPa, x2 = 0.0836	1.84
298.16 K, 101 kPa, x2 = 0.1794	2.14
298.16 K, 101 kPa, x2 = 0.3006	2.72
298.16 K, 101 kPa, x2 = 0.4221	3.52
298.16 K, 101 kPa, x2 = 0.5466	4.45
298.16 K, 101 kPa, x2 = 0.6595	5.05
298.16 K, 101 kPa, x2 = 0.6861	5.04
298.16 K, 101 kPa, x2 = 0.7608	4.66
298.16 K, 101 kPa, x2 = 0.7976	4.23
298.16 K, 101 kPa, x2 = 0.8599	3.2
303.15 K, 101 kPa, x1 = 0.3001	4.365
303.15 K, 101 kPa, x1 = 0.899	1.705
308.15 K, 101 kPa, x1 = 0.02	0.9403
308.15 K, 101 kPa, x1 = 0.0505	1.375
308.15 K, 101 kPa, x1 = 0.1202	2.303
308.15 K, 101 kPa, x1 = 0.1702	2.895
308.15 K, 101 kPa, x1 = 0.1999	3.179
308.15 K, 101 kPa, x1 = 0.2205	3.323
308.15 K, 101 kPa, x1 = 0.2496	3.478
308.15 K, 101 kPa, x1 = 0.2697	3.539
308.15 K, 101 kPa, x1 = 0.2937	3.574
308.15 K, 101 kPa, x1 = 0.3202	3.591
308.15 K, 101 kPa, x1 = 0.3496	3.518
308.15 K, 101 kPa, x1 = 0.3999	3.351
308.15 K, 101 kPa, x1 = 0.45	3.147
308.15 K, 101 kPa, x1 = 0.4999	2.912
308.15 K, 101 kPa, x1 = 0.6002	2.487
308.15 K, 101 kPa, x1 = 0.7	2.138
308.15 K, 101 kPa, x1 = 0.7997	1.883
308.15 K, 101 kPa, x1 = 0.8962	1.691
313.15 K, 101.15 kPa, x1 = 0.0501	1.178
313.15 K, 101.15 kPa, x1 = 0.0701	1.402
313.15 K, 101.15 kPa, x1 = 0.1001	1.744
313.15 K, 101.15 kPa, x1 = 0.2004	2.684
313.15 K, 101.15 kPa, x1 = 0.3004	2.975
313.15 K, 101.15 kPa, x1 = 0.4012	2.777
313.15 K, 101.15 kPa, x1 = 0.503	2.44
313.15 K, 101.15 kPa, x1 = 0.5937	2.125
313.15 K, 101.15 kPa, x1 = 0.7023	1.818
313.15 K, 101.15 kPa, x1 = 0.8066	1.585
313.15 K, 101.15 kPa, x1 = 0.9006	1.43
318.15 K, 101 kPa, x1 = 0.0997	1.548
318.15 K, 101 kPa, x1 = 0.1202	1.73
318.15 K, 101 kPa, x1 = 0.1503	2.039
318.15 K, 101 kPa, x1 = 0.1702	2.13
318.15 K, 101 kPa, x1 = 0.1999	2.32
318.15 K, 101 kPa, x1 = 0.2205	2.417
318.15 K, 101 kPa, x1 = 0.2496	2.527
318.15 K, 101 kPa, x1 = 0.2697	2.572
318.15 K, 101 kPa, x1 = 0.2937	2.603
318.15 K, 101 kPa, x1 = 0.3202	2.623
318.15 K, 101 kPa, x1 = 0.3496	2.589
318.15 K, 101 kPa, x1 = 0.3999	2.503
318.15 K, 101 kPa, x1 = 0.45	2.387
318.15 K, 101 kPa, x1 = 0.4999	2.245
318.15 K, 101 kPa, x1 = 0.6002	1.977
318.15 K, 101 kPa, x1 = 0.7997	1.571
318.15 K, 101 kPa, x1 = 0.9498	1.375
323.15 K, 101 kPa, x1 = 0.6997	1.485
323.15 K, 101.15 kPa, x1 = 0.0501	0.942
323.15 K, 101.15 kPa, x1 = 0.0701	1.106
323.15 K, 101.15 kPa, x1 = 0.2004	1.995
323.15 K, 101.15 kPa, x1 = 0.4012	2.116
323.15 K, 101.15 kPa, x1 = 0.503	1.935
323.15 K, 101.15 kPa, x1 = 0.7023	1.509
323.15 K, 101.15 kPa, x1 = 0.8066	1.343
